Data published in US20220125747A1, “APPLICATION OF ACTIVE INGREDIENT WGX50 IN ZANTHOXYLUM BUNGEANUM EXTRACT” (Shanghai Jiao Tong University, priority 2020, published 2022).

Experiments:
Format in all cases: cell-based
TNFα = assay: anti-inflammatory test of keratinocytes stimulated by UVB, TNFα ELISA; details: for TNFα Decreased ratio (compared to NC) / TNFα Average concentration: 24 h; for TNFα Average concentration: ELISA of culture supernatant
Text: (§1) 3. Anti-inflammatory test based on UVB (ultraviolet radiation b) stimulation of keratinocytes. The blank control (oil-soluble), solvent control (oil-soluble), positive control and sample groups are grouped in the experiment. The detection indexes are TNFα (a pro-inflammatory factors, the NF-κB signaling pathway mediates and initiates the transcription of TNFα (abbreviation for tumor necrosis factor alpha), and after TNFα is synthesized, it binds to its receptor and in turn activates the NF-κB signaling pathway) and IL1-α (a pro-inflammatory factor being non-hydrophobic polypeptide, which is secreted out of cells after cell membrane damage, and then the pro-inflammatory factor binds to its corresponding receptor IL1R and activates NF-κB to induce inflammatory cascade reaction), the detection and analysis are performed according to the operating manual of the TNFα and IL1-α kits.
Embodiment 5, anti-inflammatory test of keratinocytes stimulated by UVB.
(§2) TNFα and IL1-α expression detection process: after 24 hours of incubation, the cell culture supernatant is collected, and the detection and analysis are performed according to the operating instructions of the TNFα and IL1-α kit. When using the T-Test method for statistical analysis, the NC group is compared with the BC group, and the significance is indicated by #, P-value<0.05 is indicated as #, P-value<0.01 is indicated as ##; sample group and positive control group are compared with NC group, and significance is represented by *, P-value<0.05 is represented by *, P-value<0.01 is represented by * *.

IL-1α = assay: anti-inflammatory test of keratinocytes stimulated by UVB, IL-1α ELISA; details: for IL-1α Decreased ratio (compared to NC) / IL-1α Average concentration: 24 h; for IL-1α Average concentration: ELISA of culture supernatant
Text: as §1, §2

keratinocytes = assay: cytotoxicity test based on keratinocytes (MTT); details: for Cell vitality Mean: keratinocytes, 24 hours, MTT
Description: Embodiment 1, cytotoxicity test based on keratinocytes. Set up 8 concentration gradients, and set up 3 repeating holes under each concentration. At the same time, solvent control hole, zero adjustment hole (KC2500) and positive control hole (PC, 4% Dimethyl sulfoxide, DMSO) are set up in the experiment. After incubation for 24 hours, the cell viability is detected by MTT method, and the maximum safe concentration of cell administration is screened. The MTT test results are shown in Table 1, in which the GraphPad Prism Program software is used for mapping, and T-test statistical analysis is used among all groups. P-value<0.05 indicates significant difference, and P-value<0.01 indicates extremely significant difference. According to the results of MTT assay, the concentration near the inflection point of cell vitality is selected, and after incubation and culture for 24 hours, the cell morphology is observed under the inverted microscope and photographed (20×), and the morphological detection results are shown in FIG. 2.

melanocytes = assay: cytotoxicity test based on melanocytes (MTT); details: for Cell vitality Mean: melanocytes, 24 hours
Description: Embodiment 2, cytotoxicity test based on melanocytes. Set up 8 concentration gradients, and set up 3 repeating holes under each concentration. At the same time, solvent control well, Medium-254 well and positive control well (PC, 8% DMSO) are set up in the experiment. After incubation for 24 hours, the cell viability is detected by MTT method, and the maximum safe concentration of cell administration is screened.

AQP3 gene = assay: moisturizing gene test based on keratinocytes (qRT-PCR), AQP3; details: 5 μM, 24 h
Description: (§3) 1. Moisturizing gene test based on keratinocytes. First, the cytotoxicity of keratinocytes is tested, and then the experimental design is carried out, and a blank control group and a sample group are set up. The detection indexes are AQP3 (aquaporin), CD44 (cell-surface glycoproteins), Filaggrin (protein), claudin-1 (tight junction protein) and HAS2 (hyaluronic acid synthetase). RNA extraction, reverse transcription and fluorescence quantitative PCR are carried out, and the results are calculated by 2^−ΔΔCT method.
(§4) Embodiment 3, moisturizing gene test based on keratinocytes.
AQP3 aquaporin in the detection index, located on the cell membrane, has the function of transporting water and plays an important role in the process of skin moisturizing.
(§5) Gene detection process: after incubation for 24 hours, the cells are sampled, and RNA extraction, reverse transcription and fluorescence quantitative PCR detection are carried out according to the kit instruction, and the results are calculated by 2^−ΔΔΔCT method. When statistical analysis is carried out by T-Test method, significance is represented by *, P-value<0.05 is represented by *, and P-value<0.01 is represented by * *.

Filaggrin = assay: moisturizing gene test based on keratinocytes (qRT-PCR), Filaggrin; details: 5 μM, 24 h
Description: as §3, §4, §5

Claudin-1 = assay: moisturizing gene test based on keratinocytes (qRT-PCR), Claudin-1; details: 5 μM, 24 h
Description: as §3, §4, §5

HAS2 = assay: moisturizing gene test based on keratinocytes (qRT-PCR), HAS2; details: 5 μM, 24 h
Description: as §3, §4, §5

CD44 = assay: moisturizing gene test based on keratinocytes (qRT-PCR), CD44; details: 5 μM, 24 h
Description: as §3, §4, §5

MC1R = assay: whitening gene test based on melanocytes (qRT-PCR), MC1R; details: 100 μM, 24 h
Description: (§6) 2. Whitening gene test based on melanocytes. First, the cytotoxicity of melanocytes is tested, and then the experimental design is carried out, and a blank control group and a sample group are set up. The detection indexes are MC1R (melanocortin receptor), MITF (melanogenesis transcription factor), TYR (melanin synthesis and transport related gene) and TYP-1 (tyrosinase related protein). RNA extraction, reverse transcription and fluorescence quantitative PCR are carried out, and the results are calculated by 2^−ΔΔCT method.
(§7) Embodiment 4, whitening gene test based on melanocytes.
as §5, with “after” for “after incubation for”, “hours of incubation,” for “hours,”, “instructions,” for “instruction,”

MITF = assay: whitening gene test based on melanocytes (qRT-PCR), MITF; details: 100 μM, 24 h
Description: as §6, §7
as §5, with “after” for “after incubation for”, “hours of incubation,” for “hours,”, “instructions,” for “instruction,”

TYR = assay: whitening gene test based on melanocytes (qRT-PCR), TYR; details: 100 μM, 24 h
Description: as §6, §7
as §5, with “after” for “after incubation for”, “hours of incubation,” for “hours,”, “instructions,” for “instruction,”

TRP-1 = assay: whitening gene test based on melanocytes (qRT-PCR), TRP-1; details: 100 μM, 24 h
Description: as §6, §7
as §5, with “after” for “after incubation for”, “hours of incubation,” for “hours,”, “instructions,” for “instruction,”

[1] = 5 μM, compared with the positive control group (so in the source), P-value<0.01

## C[C@@H]1C[C@H]2[C@@H]3CCC4=CC(=O)C=C[C@]4(C)[C@@]3(F)[C@@H](O)C[C@]2(C)[C@@]1(O)C(=O)CO [PC, Dexamethasone, reference compound]
TNFα; 100 μg/mL
  TNFα Decreased ratio (compared to NC): 94%
  TNFα Average concentration: 8.34 pg/mL
TNFα; 100 μg/mL, P-value<0.01
  secretion of TNFα compared with the solvent control group: decreases significantly
IL-1α; 100 μg/mL
  IL-1α Decreased ratio (compared to NC): 29%
  IL-1α Average concentration: 93.97 pg/mL
IL-1α; 100 μg/mL, P-Value<0.05
  secretion of IL-1α compared with the solvent control group: decreases significantly

## COc1ccc(CCNC(=O)/C=C/c2ccccc2)cc1OC [WGX50, (E)-N[2-(3,4-dimethoxyphenyl)ethyl]-3-phenylacrylamide]
keratinocytes; in the concentration range of 5 μM, MTT and morphological results
  cytotoxicity to keratinocytes: no cytotoxicity
keratinocytes; 0.5 μM
  Cell vitality Mean: 106.81%
keratinocytes; 1 μM
  Cell vitality Mean: 93.72%
keratinocytes; 2.5 μM
  Cell vitality Mean: 93.60%
keratinocytes; 5 μM
  Cell vitality Mean: 93.01%
keratinocytes; 10 μM
  Cell vitality Mean: 84.00%
keratinocytes; 25 μM
  Cell vitality Mean: 66.77%
keratinocytes; 50 μM
  Cell vitality Mean: 57.35%
keratinocytes; 100 μM
  Cell vitality Mean: 50.36%
melanocytes; in the concentration range of 100 μM
  cytotoxicity to melanocytes: no cytotoxicity
melanocytes; 0.5 μM
  Cell vitality Mean: 105.78%
melanocytes; 1 μM
  Cell vitality Mean: 99.02%
melanocytes; 2.5 μM
  Cell vitality Mean: 96.68%
melanocytes; 5 μM
  Cell vitality Mean: 95.56%
melanocytes; 10 μM
  Cell vitality Mean: 99.51%
melanocytes; 25 μM
  Cell vitality Mean: 99.51%
melanocytes; 50 μM
  Cell vitality Mean: 108.86%
melanocytes; 100 μM
  Cell vitality Mean: 96.62%
AQP3 gene; P-value<0.01
  expression of AQP3 gene in keratinocytes compared with the blank control group: significantly promotes
AQP3 gene; qRT-PCR
  AQP3 Increased ratio (compared to BC): 34.20%
  AQP3 gene expression Mean (2^−ΔΔCT): 1.345
Filaggrin
  Filaggrin Increased ratio (compared to BC): 7.20%
  Filaggrin gene expression Mean (2^−ΔΔCT): 1.101
Claudin-1
  Claudin-1 Increased ratio (compared to BC): 17.50%
  Claudin-1 gene expression Mean (2^−ΔΔCT): 1.182
HAS2
  HAS2 Increased ratio (compared to BC): −14.70%
  HAS2 gene expression Mean (2^−ΔΔCT): 0.898
CD44
  CD44 Increased ratio (compared to BC): −21.90%
  CD44 gene expression Mean (2^−ΔΔCT): 0.785
MC1R; P-value<0.01
  expression of MC1R gene in melanocytes compared with the blank control group: significantly inhibits
MC1R; qRT-PCR
  MC1R Increased ratio (compared to BC): 47.2%
  MC1R gene expression Mean (2^−ΔΔCT): 0.528
MITF; P-value<0.01
  expression of MITF gene in melanocytes compared with the blank control group: significantly inhibits
MITF; qRT-PCR
  MITF Increased ratio (compared to BC): 57.8%
  MITF gene expression Mean (2^−ΔΔCT): 0.432
TYR; P-value<0.01
  expression of TYR gene in melanocytes compared with the blank control group: significantly inhibits
TYR; qRT-PCR
  TYR Increased ratio (compared to BC): 51.8%
  TYR gene expression Mean (2^−ΔΔCT): 0.488
TRP-1; P-value<0.01
  expression of TYP-1 gene in melanocytes compared with the blank control group: significantly inhibits
TRP-1; qRT-PCR
  TRP-1 Increased ratio (compared to BC): 70.10%
  TRP-1 gene expression Mean (2^−ΔΔCT): 0.304
TNFα; 5 μM
  TNFα Decreased ratio (compared to NC): 85%
  TNFα Average concentration: 18.97 pg/mL
TNFα; [1]
  secretion of TNFα: decreases significantly
IL-1α; 5 μM
  IL-1α Decreased ratio (compared to NC): 67%
  IL-1α Average concentration: 43.65 pg/mL
IL-1α; [1]
  secretion of IL-1α: decreases significantly

## C[S+](C)[O-] [DMSO, Dimethyl sulfoxide, reference compound]
keratinocytes; positive control 4% DMSO
  Cell vitality Mean: 30.27%
melanocytes; positive control 8% DMSO
  Cell vitality Mean: 24.23%
